# In patent US20240276986A1, “Compositions With Ethofumesate And A Safener” (BAYER AKTIENGESELLSCHAFT, priority 2021, published 2024):
# Like-named read-outs stand apart in the source and are kept apart here.
# Columns and labels:
# [1] = test system: soft winter wheat (TRZAW); assay: Field trial, crop injury in soft winter wheat after early post-emergence spray; format: in vivo, Triticum aestivum; settings: post-emergence BBCH 11, 140 L/ha, ethofumesate 250 g/ha, combination 250 + 100 g/ha, visual rating vs untreated control
# Method: (§1) In field trials the interaction of (i) ethofumesate and (ii) the safener mefenpyr-diethyl concerning cereal crop injury was investigated.
# (§2) Plots of different verities of wheat and barley crops in the field were sprayed with an application volume of 140 L/ha with a handheld spray boom.
# (§3) Application of the application spray compostions was carried out early in each case post-emergence at BBCH growth stage 11 (first leaf unfolded) of the respective wheat or barley crops.
# The four different soft winter wheat (TRZAW) varieties tested were ARTHUR NICK, ELIXER, PISTOLO and RUBISKO.
# (§4) The maximum crop damage and the final crop damage were in each case visually rated on a percentage scale in relation to the untreated control (100%=all plants dead, complete crop kill; 50%=green plant biomass reduced by 50%, and 0%=like control plot, no crop injury).
# (§5) The main symptoms of crop damage observed were thinning and stunting.
# [2] = test system: winter barley (HORVW); assay: Field trial, crop injury in winter barley after early post-emergence spray; format: in vivo, Hordeum vulgare; settings: post-emergence BBCH 11, 140 L/ha, ethofumesate 250 g/ha, combination 250 + 100 g/ha, visual rating vs untreated control
# Method: as §1, §2, §3
# The three different winter barley (HORVW) varieties tested were CALIFORNIA, CIERZO and KWS ORBIT.
# as §4, §5
# [3] = test system: barley and wheat; settings: greenhouse studies; cited from earlier work
# [4] = test system: annual bluegrass (Poa annua L.); settings: pre-emergence or early post-emergence at 0.8 to 4.5 kg/ha; Italian ryegrass seed fields; cited from earlier work
# [5] = test system: volunteer wheat (Triticum aestivum L.); settings: cited from earlier work
# [6] = test system: cereral crops such as wheat or barley; assay: Own experiments, safening effect of mefenpyr-diethyl used with flufenacet; format: in vivo; settings: used with flufenacet (WSSA group 15); cereal crops such as wheat or barley
Compound,Final crop damage in % ([1]; Variety ARTUR NICK) [%],Maximum crop damage in % ([1]; Variety ARTUR NICK) [%],Final crop damage in % ([1]; Variety ELIXER) [%],Maximum crop damage in % ([1]; Variety ELIXER) [%],Final crop damage in % ([1]; Variety PISTOLO) [%],Maximum crop damage in % ([1]; Variety PISTOLO) [%],Final crop damage in % ([1]; Variety RUBISKO) [%],Maximum crop damage in % ([1]; Variety RUBISKO) [%],Final crop damage in % ([2]; Variety CALIFORNIA) [%],Maximum crop damage in % ([2]; Variety CALIFORNIA) [%],Final crop damage in % ([2]; Variety CIERZO) [%],Maximum crop damage in % ([2]; Variety CIERZO) [%],Final crop damage in % ([2]; Variety KWS ORBIT) [%],Maximum crop damage in % ([2]; Variety KWS ORBIT) [%],susceptibility of barley and wheat to soil residues of ethofumesate relative to corn [3],control of annual bluegrass [4],"control of volunteer wheat ([5]; 1.7 kg/ha or more, wheat in the one- to three-leaf stage)",control of volunteer wheat ([5]; applied pre-emergence soon after planting or at the end of November to wheat in the four-leaf to four-tiller stage),safening effect [6]
"CCOC1Oc2ccc(OS(C)(=O)=O)cc2C1(C)C (stereo not shown) [Ethofumesate, 2-ethoxy-2,3-dihydro-3,3-dimethylbenzofuran-5-yl methanesulfonate]",11.6,16,28.3,63,14.0,24,13.7,30,12.5,25,19.7,28,25.0,45,about 10 times,eliminated annual bluegrass,eliminated the wheat,not eliminated,–
"CCOC(=O)C1=NN(c2ccc(Cl)cc2Cl)C(C)(C(=O)OCC)C1 (stereo not shown) [mefenpyr-diethyl, ethyl 1-(2,4-dichlorophenyl)-5-(ethoxycarbonyl)-5-methyl-2-pyrazoline-3-carboxylate]",–,–,–,–,–,–,–,–,–,–,–,–,–,–,–,–,–,–,does not have a safening effect
